Like-named read-outs stand apart in the source and are kept apart here.
Key:
[1] = molecular target: T1, HCV NS5B (Hepatitis C virus genotype 1b, UniProt Q9WMX2); test: HCV NS5B RdRp enzyme assay (standard / modified); format: biochemical
T1 construct: The protein was expressed with an 18 amino acid C-terminal truncation to enhance the solubility; made in house; host or cells: E. coli BL21 (DE3)
Protocol: HCV NS5B RdRp cloning, expression, and purification. The cDNA encoding the NS5B protein of HCV, genotype 1b, was cloned into the pET21a expression vector. The protein was expressed with an 18 amino acid C-terminal truncation to enhance the solubility. The E. coli competent cell line BL21 (DE3) was used for expression of the protein. Cultures were grown at 37° C. for ˜4 hours until the cultures reached an optical density of 2.0 at 600 nm. The cultures were cooled to 20° C. and induced with 1 mM IPTG. Fresh ampicillin was added to a final concentration of 50 μg/ml and the cells were grown overnight at 20° C.
Cell pellets (3 L) were lysed for purification to yield 15-24 mgs of purified NS5B. The lysis buffer consisted of 20 mM Tris-HCl, pH 7.4, 500 mM NaCl, 0.5% triton X-100, 1 mM DTT, 1 mM EDTA, 20% glycerol, 0.5 mg/ml lysozyme, 10 mM MgCl2, 15 ug/ml deoxyribonuclease I, and Complete TM protease inhibitor tablets (Roche). After addition of the lysis buffer, frozen cell pellets were resuspended using a tissue homogenizer. To reduce the viscosity of the sample, aliquots of the lysate were sonicated on ice using a microtip attached to a Branson sonicator. The sonicated lysate was centrifuged at 100,000×g for 1 hr at 4° C. and filtered through a 0.2 μm filter unit (Corning).
The protein was purified using three sequential chromatography steps: Heparin sepharose CL-6B, polyU sepharose 4B, and Hitrap SP sepharose (Pharmacia). The chromatography buffers were identical to the lysis buffer but contained no lysozyme, deoxyribonuclease I, MgCl2 or protease inhibitor and the NaCl concentration of the buffer was adjusted according to the requirements for charging the protein onto the column. Each column was eluted with a NaCl gradient which varied in length from 5-50 column volumes depending on the column type. After the final chromatography step, the resulting purity of the enzyme is >90% based on SDS-PAGE analysis. The enzyme was aliquoted and stored at −80° C.
Standard HCV NS5B RdRp enzyme assay. HCV RdRp genotype 1b assays were run in a final volume of 60 μl in 96 well plates (Costar 3912). The assay buffer is composed of 20 mM Hepes, pH 7.5, 2.5 mM KCl, 2.5 mM MgCl2, 1 mM DTT, 1.6 U RNAse inhibitor (Promega N2515), 0.1 mg/ml BSA (Promega R3961), and 2% glycerol. All compounds were serially diluted (3-fold) in DMSO and diluted further in water such that the final concentration of DMSO in the assay was 2%. HCV RdRp genotype 1b enzyme was used at a final concentration of 28 nM. A polyA template was used at 6 nM, and a biotinylated oligo-dT12 primer was used at 180 nM final concentration. Template was obtained commercially (Amersham 27-4110). Biotinylated primer was prepared by Sigma Genosys. 3H-UTP was used at 0.6 μCi (0.29 μM total UTP). Reactions were initiated by the addition of enzyme, incubated at 30° C. for 60 min, and stopped by adding 25 μl of 50 mM EDTA containing SPA beads (4 μg/μl, Amersham RPNQ 0007). Plates were read on a Packard Top Count NXT after >1 hr incubation at room temperature.
Modified HCV NS5B RdRp enzyme assay. A modified enzyme assay was performed essentially as described for the standard enzyme assay except for the following: The biotinylated oligo dT12 primer was precaptured on streptavidin-coated SPA beads by mixing primer and beads in assay buffer and incubating at room temperature for one hour. Unbound primer was removed after centrifugation. The primer-bound beads were resuspended in 20 mM Hepes buffer, pH 7.5 and used in the assay at final concentrations of 20 nM primer and 0.67 μg/μl beads. Order of addition in the assay: enzyme (14 nM) was added to diluted compound followed by the addition of a mixture of template (0.2 nM), 3H-UTP (0.6 μCi, 0.29 μM), and primer-bound beads, to initiate the reaction; concentrations given are final. Reactions were allowed to proceed for 4 hours at 30° C.
IC50 values for compounds were determined using seven different [I]. […]

[2] = system: HCV replicon cells; test: HCV replicon FRET / luciferase assay; format: cell-based; conditions: Hepatitis C virus
Text: FRET Assay Preparation. To perform the HCV FRET screening assay, 96-well cell culture plates were used. The FRET peptide (Anaspec, Inc.) (Taliani et al., Anal. Biochem. 1996, 240, 60-67) contains a fluorescence donor, EDANS, near one end of the peptide and an acceptor, DABCYL, near the other end. The fluorescence of the peptide is quenched by […] resonance energy transfer (RET) between the donor and the acceptor, but as the NS3 protease cleaves the peptide the products are released from RET quenching and the fluorescence of the donor becomes apparent. The assay reagent was made as follows: 5× cell Luciferase cell culture lysis reagent from Promega (#E153A) diluted to 1× with dH2O, NaCl added to 150 mM final, the FRET peptide diluted to 20 μM final from a 2 mM stock.
To prepare plates, HCV replicon cells, with or without a Renilla luciferase reporter gene, were trypsinized and placed into each well of a 96-well plate with titrated test compounds added in columns 3 through 12; columns 1 and 2 contained a control compound (HCV protease inhibitor), and the bottom row contained cells without compound. The plates were then placed in a CO2 incubator at 37° C.
Assays. Subsequent to addition of the test compounds described above (FRET Assay Preparation), at various times the plate was removed and Alamar blue solution (Trek Diagnostics, #00-100) was added per well as a measure of cellular toxicity. After reading in a Cytoflour 4000 instrument (PE Biosystems), plates were rinsed with PBS and then used for FRET assay by the addition of 30 ul of the FRET peptide assay reagent described above (FRET Assay Preparation) per well. The plate was then placed into the Cytoflour 4000 instrument which had been set to 340 excite/490 emission, automatic mode for 20 cycles and the plate read in a kinetic mode. Typically, the signal to noise using an endpoint analysis after the reads was at least three-fold. Alternatively, after Alamar blue reading, plates were rinsed with PBS, 50 ul of DMEM (high glucose) without phenol red was added and plates were then used for luciferase assay using the Promega Dual-Glo Luciferase Assay System.
Compound analysis was determined by quantification of the relative HCV replicon inhibition and the relative cytotoxicity values. To calculate cytoxicity values, the average Alamar Blue fluorescence signals from the control wells were set as 100% non-toxic. The individual signals in each of the compound test wells were then divided by the average control signal and multiplied by 100% to determine […]. To calculate the HCV replicon inhibition values, an average background value was obtained from the two wells containing the highest amount of HCV protease inhibitor at the end of the assay period. These numbers were similar to those obtained from naïve Huh-7 cells.
The background numbers were then subtracted from the average signal obtained from the control wells and this number was used as 100% activity. The individual signals in each of the compound test wells were then divided by the averaged control values after background subtraction and multiplied by 100% to determine percent activity. EC50 values for a protease inhibitor titration were calculated as the concentration which caused a 50% reduction in FRET or luciferase activity. The two numbers generated for the compound plate, percent cytoxicity and percent activity were used to determine compounds of interest for further analysis.

[3] = HCV RdRp genotype 1b enzyme, read-out: IC50
[4] = HCV replicon cells, FRET or luciferase readout, read-out: EC50

T1 sequence (Q9WMX2 2420-2992): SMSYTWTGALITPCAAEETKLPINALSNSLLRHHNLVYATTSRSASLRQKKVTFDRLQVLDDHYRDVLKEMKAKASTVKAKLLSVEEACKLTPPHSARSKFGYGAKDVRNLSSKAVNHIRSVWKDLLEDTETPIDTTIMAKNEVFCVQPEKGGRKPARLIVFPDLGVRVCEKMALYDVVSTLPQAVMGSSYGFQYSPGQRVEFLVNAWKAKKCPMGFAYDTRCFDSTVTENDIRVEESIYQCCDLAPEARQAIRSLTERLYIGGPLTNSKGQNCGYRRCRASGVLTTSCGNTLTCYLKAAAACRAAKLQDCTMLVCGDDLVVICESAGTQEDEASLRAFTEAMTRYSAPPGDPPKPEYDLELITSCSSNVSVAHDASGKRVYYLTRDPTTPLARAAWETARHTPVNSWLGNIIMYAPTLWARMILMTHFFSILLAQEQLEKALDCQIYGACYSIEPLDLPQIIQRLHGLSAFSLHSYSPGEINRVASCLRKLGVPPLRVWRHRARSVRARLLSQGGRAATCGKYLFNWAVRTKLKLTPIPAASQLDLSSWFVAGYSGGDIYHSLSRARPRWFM

Structure (SMILES)	IC50 [1]	EC50 [2]	IC50 [1, 3]	EC50 [2, 4]
COc1ccc2c(c1)C=C(c1c(C(=O)N3CC4CCC(C3)N4C)cnn1C)Cn1c-2c(C2CCCCC2)c2ccc(C(=O)NS(=O)(=O)C(C)C)cc21	1 to 500 nM	1 to 500 nM		
COc1ccc2c(c1)C=C(c1c(C(=O)N3C[C@@H](C)N(C)[C@@H](C)C3)cnn1CC(F)(F)F)Cn1c-2c(C2CCCCC2)c2ccc(C(=O)NS(=O)(=O)C(C)C)cc21			1 to 500 nM	1 to 500 nM
COc1ccc2c(c1)C=C(c1c(C(=O)N3C[C@@H](C)O[C@@H](C)C3)cnn1C)Cn1c-2c(C2CCCCC2)c2ccc(C(=O)NS(=O)(=O)CC(C)C)cc21			1 to 500 nM	1 to 500 nM
COc1ccc2c(c1)C=C(c1c(C(=O)N(C)CCN(C)C)cnn1C)Cn1c-2c(C2CCCCC2)c2ccc(C(=O)NS(=O)(=O)N3CCOCC3)cc21			1 to 500 nM	1 to 500 nM
COc1ccc2c(c1)C=C(c1c(C(=O)N3C4CCC3COC4)cnn1CC(F)(F)F)Cn1c-2c(C2CCCCC2)c2ccc(C(=O)NS(=O)(=O)C(C)C)cc21	1 to 500 nM	1 to 500 nM		
CCOC(=O)c1cnn(C)c1C1=Cc2cc(OC)ccc2-c2c(C3CCCCC3)c3ccc(C(=O)O)cc3n2C1			1 to 500 nM	1 to 500 nM
COc1ccc2c(c1)C=C(c1c(C(=O)N3C4CCCC3COC4)cnn1C)Cn1c-2c(C2CCCCC2)c2ccc(C(=O)NS(=O)(=O)CC(C)C)cc21	1 to 500 nM	1 to 500 nM		
COc1ccc2c(c1)C=C(c1ocnc1C(=O)O)Cn1c-2c(C2CCCCC2)c2ccc(C(=O)OC(C)(C)C)cc21			> 40 nM	> 40 nM
COc1ccc2c(c1)C=C(c1c(C(=O)N3C4CCC3CC4)cnn1C)Cn1c-2c(C2CCCCC2)c2ccc(C(=O)NS(=O)(=O)C(C)C)cc21		1 to 500 nM		
COc1ccc2c(c1)C=C(c1c(C(=O)N3C4CCC3CN(C)C4)ccn1C(C)C)Cn1c-2c(C2CCCCC2)c2ccc(C(=O)NS(=O)(=O)C(C)C)cc21	1 to 500 nM	1 to 500 nM		
COc1ccc2c(c1)C=C(c1c(C(=O)N3C[C@@H](C)O[C@@H](C)C3)cnn1CC(C)C)Cn1c-2c(C2CCCCC2)c2ccc(C(=O)NS(=O)(=O)C(C)C)cc21			1 to 500 nM	1 to 500 nM
COc1ccc2c(c1)C=C(c1c(C(=O)N3CC4CCC(C3)O4)c(C)nn1C)Cn1c-2c(C2CCCCC2)c2ccc(C(=O)NS(=O)(=O)C(C)C)cc21			1 to 500 nM	1 to 500 nM
COc1ccc2c(c1)C=C(c1c(C(=O)N3CCCC(N(C)C)C3)cnn1C)Cn1c-2c(C2CCCCC2)c2ccc(C(=O)NS(=O)(=O)N3CCOCC3)cc21 (stereo not shown)			1 to 500 nM	1 to 500 nM
COC[C@@H]1CN(C(=O)c2cnn(C)c2C2=Cc3cc(OC)ccc3-c3c(C4CCCCC4)c4ccc(C(=O)NS(=O)(=O)N5CCOCC5)cc4n3C2)CCO1			1 to 500 nM	1 to 500 nM
COC[C@@H]1CN(C(=O)c2c(C(F)(F)F)nn(C)c2C2=Cc3cc(OC)ccc3-c3c(C4CCCCC4)c4ccc(C(=O)NS(=O)(=O)C(C)C)cc4n3C2)CCO1			1 to 500 nM	1 to 500 nM
COc1ccc2c(c1)C=C(c1c(C(=O)N3CCOCC3)cnn1C)Cn1c-2c(C2CCCCC2)c2ccc(C(=O)NS(=O)(=O)CC(C)C)cc21			1 to 500 nM	1 to 500 nM
COc1ccc2c(c1)C=C(c1c(C(=O)N3C4CCC3CN(C)C4)c(C)nn1C(C)C)Cn1c-2c(C2CCCCC2)c2ccc(C(=O)NS(=O)(=O)C(C)C)cc21		1 to 500 nM		
COc1ccc2c(c1)C=C(c1c(C(=O)N3C4CCC3CN(C)C4)ncn1C(C)C)Cn1c-2c(C2CCCCC2)c2ccc(C(=O)NS(=O)(=O)C(C)C)cc21		1 to 500 nM		
CCn1ncc(C(=O)N2C3CCC2CN(C)C3)c1C1=Cc2cc(OC)ccc2-c2c(C3CCCCC3)c3ccc(C(=O)NS(=O)(=O)C(C)C)cc3n2C1		1 to 500 nM		
COc1ccc2c(c1)C=C(c1c(C(=O)N3C4COCC3COC4)cnn1CC(F)(F)F)Cn1c-2c(C2CCCCC2)c2ccc(C(=O)NS(=O)(=O)C(C)C)cc21		1 to 500 nM		
CCn1nc(C)c(C(=O)N2C3CCCC2COC3)c1C1=Cc2cc(OC)ccc2-c2c(C3CCCCC3)c3ccc(C(=O)NS(=O)(=O)C(C)C)cc3n2C1		1 to 500 nM		
CCn1ncc(C(=O)N2CC3CCC(C2)N3C)c1C1=Cc2cc(OC)ccc2-c2c(C3CCCCC3)c3ccc(C(=O)NS(=O)(=O)C(C)C)cc3n2C1		1 to 500 nM		
CCn1nc(C)c(C(=O)N2C3CCC2CN(C)C3)c1C1=Cc2cc(OC)ccc2-c2c(C3CCCCC3)c3ccc(C(=O)NS(=O)(=O)C(C)C)cc3n2C1		1 to 500 nM		
COc1ccc2c(c1)C=C(c1c(C(=O)N3C4CCCC3COC4)cnn1C(C)C)Cn1c-2c(C2CCCCC2)c2ccc(C(=O)NS(=O)(=O)C(C)C)cc21		1 to 500 nM		
COc1ccc2c(c1)C=C(c1c(C(=O)N3C4CCC3CN(C)C4)nnn1C(C)C)Cn1c-2c(C2CCCCC2)c2ccc(C(=O)NS(=O)(=O)N(C)C)cc21		1 to 500 nM		
